Read-outs that look alike come from different tables or passages of the source.
Key:
Assay type in all cases: in vivo, male Wistar rats
[1] = Blocking experiment 1: co-injection of (dl)-vesamicol with radiotracer; conditions: rat, iv, 60 min
Description: (§1) Two separate experiments each utilizing two groups of male Wistar rats (n=3) were performed.
(§2) Experiment 1. Animals in Group 1 (control) each received an intravenous injection of the radiotracer (4.7 uCi in 100 uL of 50% aq. EtOH). […] At 60 min post-injection, the animals were sacrificed and the tissues were harvested as outlined above.
(§3) Animals in Group 1 received a single i.v. injection of radiotracer.
(§4) Animals in Group 2 were administered with a mixture of the radiotracer an
(§5) All animals were sacrificed a
(§6) 60 min postradiotracer injection.

[2] = test system: vesamicol receptor; test: as above; conditions: 60 min, iv
Description: as §1, §2, §3, §4, §5, §6

[3] = Blocking experiment 2: effect of vesamicol pretreatment on radiotracer accumulation; conditions: rat, iv, 2 uCi, 30 min postradiotracer
Description: (§7) Two separate experiments each utilizing two groups of male Wistar rats (n=3) were performed. […]
(§8) At time = 0, animals in group 1 injected intravenously with vehicle (50%)
(§9) aq. EtOH; 0.2 ml), while animals in group 2 each received an i.v.
(§10) injection of (dl)vesamicol. HCl (1.01 umol/Kg0). After 15 min, both group
(§11) were injected with the radiotracer, allowed to recover and sacrificed 30
(§12) min postradiotracer injection.

[4] = test system: vesamicol receptor; test: as above; conditions: 30 min postradiotracer
Description: as §7, §8, §9, §10, §11, §12

[5] = test system: vesamicol receptor; test: Ex vivo autoradiography of rat brain; conditions: 3 hrs after iv
Description: Ex-vivo Autoradiographic Studies
Two groups of male Wistar rats (n=2) were used in these experiments. Each animal in the first group received an i.v. injection of (+)-[^125 I]12h (385 uCi in 0.1/ml of 50% aq. EtOH). Similarly, animals in the second group received 330 uCi of (-)-[^125 I]12h (in 0.1 ml of 50% aq. EtOH). After 3 hrs, the animals were sacrificed by decapitation. The brains were carefully removed, embedded in Tissue Tek OCT medium and frozen to […] Twenty micron thick coronal brain slices were subsequently obtained by sectioning rostrocaudally with a Reichert HistoSTAT microtome at -15°. The tissue sections were apposed to Kodak NMC film accompanied by ^125 I-labeled external standards (^125 I-Microscales from Amersham). For delineation of cytoarchitecture, adjacent tissue sections were subjected to Nissl staining.

[6] = Group 2: with (dl)vesamicol hydrochloride
[7] = Group 2: (dl)vesamicol.HCl 1.01 umol/Kg pretreatment

O[C@@H]1CCN(Cc2cccc([125I])c2)C[C@H]1N1CCC(c2ccccc2)CC1 (single isomer, unassigned) [(-)-[^125 I]12h, (+)- and (-)-4-hydroxy-1-(3-[I^125]iodobenzyl)-3-(4-phenyl-piperidinyl)piperidine]
tissue uptake at 1 h ([1]; blood, Group 1: radiotracer alone, read-out: Blocking study, blood): 0.09 %ID/g
tissue uptake at 1 h ([1]; blood, Group 2: with (dl)vesamicol hydrochloride, read-out: Blocking study, blood): 0.09 %ID/g
tissue uptake at 1 h ([1]; brain, Group 1: radiotracer alone, read-out: Blocking study, brain): 0.97 %ID/g
tissue uptake at 1 h ([1]; brain, Group 2: with (dl)vesamicol hydrochloride, read-out: Blocking study, brain): 0.29 %ID/g
tissue uptake at 1 h ([1]; gonads, Group 1: radiotracer alone, read-out: Blocking study, gonads): 0.21 %ID/g
tissue uptake at 1 h ([1]; gonads, Group 2: with (dl)vesamicol hydrochloride, read-out: Blocking study, gonads): 0.22 %ID/g
tissue uptake at 1 h ([1]; heart, Group 1: radiotracer alone, read-out: Blocking study, heart): 0.5 %ID/g
tissue uptake at 1 h ([1]; heart, Group 2: with (dl)vesamicol hydrochloride, read-out: Blocking study, heart): 0.16 %ID/g
tissue uptake at 1 h ([1]; kidney, Group 1: radiotracer alone, read-out: Blocking study, kidney): 3.11 %ID/g
tissue uptake at 1 h ([1]; kidney, Group 2: with (dl)vesamicol hydrochloride, read-out: Blocking study, kidney): 0.89 %ID/g
tissue uptake at 1 h ([1]; liver, Group 1: radiotracer alone, read-out: Blocking study, liver): 2.45 %ID/g
tissue uptake at 1 h ([1]; liver, Group 2: with (dl)vesamicol hydrochloride, read-out: Blocking study, liver): 2.31 %ID/g
tissue uptake at 1 h ([1]; lung, Group 1: radiotracer alone, read-out: Blocking study, lung): 1.96 %ID/g
tissue uptake at 1 h ([1]; lung, Group 2: with (dl)vesamicol hydrochloride, read-out: Blocking study, lung): 0.76 %ID/g
tissue uptake at 1 h ([1]; muscle, Group 1: radiotracer alone, read-out: Blocking study, muscle): 0.26 %ID/g
tissue uptake at 1 h ([1]; muscle, Group 2: with (dl)vesamicol hydrochloride, read-out: Blocking study, muscle): 0.12 %ID/g
tissue uptake at 1 h ([1]; spleen, Group 1: radiotracer alone, read-out: Blocking study, spleen): 1.1 %ID/g
tissue uptake at 1 h ([1]; spleen, Group 2: with (dl)vesamicol hydrochloride, read-out: Blocking study, spleen): 0.58 %ID/g
tissue uptake at 1 h ([1]; thyroid, Group 1: radiotracer alone, read-out: Blocking study, thyroid): 5.58 %ID/g
tissue uptake at 1 h ([1]; thyroid, Group 2: with (dl)vesamicol hydrochloride, read-out: Blocking study, thyroid): 6.55 %ID/g
Blocking study, ratio brain/blood ([2]; Group 1: radiotracer alone): 10.44
Blocking study, ratio heart/blood ([2]; Group 1: radiotracer alone): 5.37
Blocking study, ratio brain/blood [2, 6]: 3.30
Blocking study, ratio heart/blood [2, 6]: 1.87
tissue uptake at 0.5 h ([3]; blood, Group 1: vehicle pretreatment, read-out: Accumulation after pretreatment, blood): 0.11 %ID/g
tissue uptake at 0.5 h ([3]; blood, Group 2: (dl)vesamicol.HCl 1.01 umol/Kg pretreatment, read-out: Accumulation after pretreatment, blood): 0.12 %ID/g
tissue uptake at 0.5 h ([3]; brain, Group 1: vehicle pretreatment, read-out: Accumulation after pretreatment, brain): 0.68 %ID/g
tissue uptake at 0.5 h ([3]; brain, Group 2: (dl)vesamicol.HCl 1.01 umol/Kg pretreatment, read-out: Accumulation after pretreatment, brain): 0.34 %ID/g
tissue uptake at 0.5 h ([3]; gonads, Group 1: vehicle pretreatment, read-out: Accumulation after pretreatment, gonads): 0.15 %ID/g
tissue uptake at 0.5 h ([3]; gonads, Group 2: (dl)vesamicol.HCl 1.01 umol/Kg pretreatment, read-out: Accumulation after pretreatment, gonads): 0.16 %ID/g
tissue uptake at 0.5 h ([3]; heart, Group 1: vehicle pretreatment, read-out: Accumulation after pretreatment, heart): 0.59 %ID/g
tissue uptake at 0.5 h ([3]; heart, Group 2: (dl)vesamicol.HCl 1.01 umol/Kg pretreatment, read-out: Accumulation after pretreatment, heart): 0.3 %ID/g
tissue uptake at 0.5 h ([3]; kidney, Group 1: vehicle pretreatment, read-out: Accumulation after pretreatment, kidney): 2.45 %ID/g
tissue uptake at 0.5 h ([3]; kidney, Group 2: (dl)vesamicol.HCl 1.01 umol/Kg pretreatment, read-out: Accumulation after pretreatment, kidney): 1.13 %ID/g
tissue uptake at 0.5 h ([3]; liver, Group 1: vehicle pretreatment, read-out: Accumulation after pretreatment, liver): 1.91 %ID/g
tissue uptake at 0.5 h ([3]; liver, Group 2: (dl)vesamicol.HCl 1.01 umol/Kg pretreatment, read-out: Accumulation after pretreatment, liver): 1.89 %ID/g
tissue uptake at 0.5 h ([3]; lung, Group 1: vehicle pretreatment, read-out: Accumulation after pretreatment, lung): 2.36 %ID/g
tissue uptake at 0.5 h ([3]; lung, Group 2: (dl)vesamicol.HCl 1.01 umol/Kg pretreatment, read-out: Accumulation after pretreatment, lung): 1.59 %ID/g
tissue uptake at 0.5 h ([3]; muscle, Group 1: vehicle pretreatment, read-out: Accumulation after pretreatment, muscle): 0.18 %ID/g
tissue uptake at 0.5 h ([3]; muscle, Group 2: (dl)vesamicol.HCl 1.01 umol/Kg pretreatment, read-out: Accumulation after pretreatment, muscle): 0.16 %ID/g
tissue uptake at 0.5 h ([3]; spleen, Group 1: vehicle pretreatment, read-out: Accumulation after pretreatment, spleen): 1.05 %ID/g
tissue uptake at 0.5 h ([3]; spleen, Group 2: (dl)vesamicol.HCl 1.01 umol/Kg pretreatment, read-out: Accumulation after pretreatment, spleen): 0.8 %ID/g
tissue uptake at 0.5 h ([3]; thyroid, Group 1: vehicle pretreatment, read-out: Accumulation after pretreatment, thyroid): 2.62 %ID/g
tissue uptake at 0.5 h ([3]; thyroid, Group 2: (dl)vesamicol.HCl 1.01 umol/Kg pretreatment, read-out: Accumulation after pretreatment, thyroid): 4.56 %ID/g
Accumulation after pretreatment, ratio brain/blood ([4]; Group 1: vehicle pretreatment): 6.45
Accumulation after pretreatment, ratio heart/blood ([4]; Group 1: vehicle pretreatment): 5.59
Accumulation after pretreatment, ratio brain/blood [4, 7]: 2.75
Accumulation after pretreatment, ratio heart/blood [4, 7]: 2.40
brain regional distribution: cortex, caudate-putamen, hippocampus and red nucleus [5]: high levels of radioactivity
levels in cortex compared with caudate-putamen [5]: slightly higher than those observed in the caudate-putamen

Source: US5876694A, “Azavesamicols” (priority 1997, dated 1999)
